Measurements: US10287617B2, “Methods for in vitro—in vivo efficacy determination” (COLORADO STATE UNIVERSITY RESEARCH FOUNDATION, priority 2014, dated 2019)
Values after ≈ are worked out from the molar mass of the structure shown. “Also recorded” adds a separate entry of the source. Like-named read-outs stand apart in the source and are kept apart here. Marks after values point to notes of the source that are not given here.

Assays:
[1] = test system: M. tuberculosis clinical isolates; details: previously reported; cited from earlier work
[2] = test system: M. tuberculosis; assay: Benzimidazoles activity tested in animals (animal models of infection, Table A); assay type: in vivo, mouse; details: Table A
Protocol: (§1) Further analysis using the methods described herein was performed on the compounds found in Tables A and B (bold font compounds are shown in FIG. 11) resulting in the data found therein.
Compound efficacy was assessed in two murine models of infection based on the short term model described previously (Lenaerts et al., Antimicrob. Agents Chemother. 2003; 47:783-785). All aerosol infections were performed using a Middlebrook aerosol generation devise (Glas-Col, Terre Haute, Ind.).

[3] = test system: M. tuberculosis H37Rv; details: previously reported SAR study; cited from earlier work
[4] = Oxidative metabolic lability in human liver microsomes; details: 5 μM, 1 mg/mL microsomal protein, 20 min
Protocol: (§2) Microsomal fractions were prepared in the Drug Disposition Domain at DSAR Montpellier (371 rue du Pr. J. Blayac, 34184 Montpellier Cedex 04, France). […] The flavin-containing monooxygenases (FMO)-dependent reactions were run in the presence of bovine serum albumin (BSA, 0.1%) for the duration of 0 and 20 min (with or without microsomal proteins and/or cofactors). […] Following protein precipitation with acetonitrile and their removal by centrifugation, supernatant fluids were analyzed by LC/MS-MS.
(§3) Thermo Finnigan TSQ Quantum Ultra instrument, ESI positive ion ionization mode. Each compound is studied in duplicates. Results are expressed in percentage of lability (or total metabolism). Total metabolism=[1−(UC_Peak Area+Cofactor at T20)/(UC_Peak Area Reference at T0)]×100
(§4) The reactions were prepared as described and were run in the presence of bovine scrum albumin (BSA, 0.1%) for the duration of 0 and 20 min (with or without microsomal proteins and/or cofactors). Enzyme activity was stopped, the protein was precipitated and removed by centrifugation. The supernatant fluids were analyzed by LC/MS-MS. […] A Thermo Finnigan TSQ Quantum Ultra instrument, ESI positive ion ionization mode was used for MS/MS. Each compound was studied in duplicates. Results are expressed in percentage of lability (or total metabolism) using the following formula: Total metabolism=[1−(UC_Peak Area+Cofactor at T20)/(UC_Peak Area Reference at T0)]×100 where UC=Unchanged Compound; “Reference” sample was NADPH for liver microsomal preparation.

[5] = Oxidative metabolic lability in mouse liver microsomes; details: 5 μM, 1 mg/mL microsomal protein, 20 min
Protocol: as §2, §3, §4

[6] = test system: Mycobacteria tuberculosis; assay: MIC and drug response curve type (Tables A and B); assay type: cell-based, Mycobacterium tuberculosis; details: Table A; for Curve: drug response curve type; for MIC: in µg/mL
Protocol: A drug concentration response curve can be generated by graphing the log10 drug concentrations (μg/mL) against the difference in growth between the drug-treated wells and control wells. See FIG. 3C, and FIG. 5 (entries for SB-P23D8 and SB-P26D9). A NREBA is indicative of bacteriostatic activity above the MIC.
as §1
MIC values were determined for the benzimidazoles using a modified 96-well microplate Alamar Blue (resazurin) assay (MABA) (see Kumar et al., J. Med. Chem. 2011; 54:374-381; Collins and Franzblau, Antimicrob. Agents Chemother. 1997; 41:1004-1009). Dose response curves were generated from the MABA assay for compounds by graphing the log10 drug concentrations against the difference in growth between the drug-treated wells and control wells using GraphPad Prism Version 5.0d for Mac OS X (GraphPad Software, San Diego Calif., USA, www.graphpad.com). For time dose studies, bacterial growth in the presence of compound was monitored by the O.D. 600 nm. […] The values were plotted against time using GraphPad Prism Version 5.0d for Mac OS X (GraphPad Software, San Diego Calif., USA, www.graphpad.com).

[7] = test system: M. tuberculosis NHN382; assay: microbe, parasite or virus in culture; assay type: cell-based, Mycobacterium tuberculosis
[8] = test system: M. tuberculosis clinical isolates; assay: microbe, parasite or virus in culture; assay type: cell-based, Mycobacterium tuberculosis; details: Mycobacterium tuberculosis, read-out: minimal inhibitory concentrations
[9] = test system: M. tuberculosis H37Rv; assay: Growth inhibition / time dose curves (OD600 and CFU); assay type: cell-based, Mycobacterium tuberculosis; details: 1×MIC
[10] = test system: M. tuberculosis Erdman; assay type: in vivo; details: for Δ Lungs (difference between means of Test and Control Groups) / Δ Spleen (difference between means of Test and Control Groups) / Log10CFU Lungs / Log10CFU Spleen: 50 mg/kg b.i.d. (Inh q.d.); for Log10CFU Lungs / Log10CFU Spleen: day 15
[11] = test system: M. tuberculosis W210; assay: microbe, parasite or virus in culture; assay type: cell-based, Mycobacterium tuberculosis
[12] = test system: Vero cells; assay: Cytotoxicity assay (resazurin, 72 h); assay type: cell-based; details: for cytotoxicity in Vero cells: at 200 μg/mL
Protocol: The cytotoxicity assay was performed as described previously^16. Briefly compounds were serially diluted in 96 well plates.

[13] = test system: M. tuberculosis NHN20; assay: microbe, parasite or virus in culture; assay type: cell-based, Mycobacterium tuberculosis
[14] = test system: M. tuberculosis TN587; assay: microbe, parasite or virus in culture; assay type: cell-based, Mycobacterium tuberculosis
[15] = test system: M. tuberculosis H37Rv; assay: MIC / dose response by modified microplate Alamar Blue assay (MABA); assay type: cell-based, Mycobacterium tuberculosis

Row | SMILES | Efficacy Lung [2] | Efficacy Spleen [2] | Liver Microsome Lability Human [4] [%] | Liver Microsome Lability Mouse [5] [%] | Curve [6] | MIC [6] | reduction in number of viable bacteria ([9]; day 2) | Δ Lungs (difference between means of Test and Control Groups) ([10]; IP) | Δ Spleen (difference between means of Test and Control Groups) ([10]; IP) | Log10CFU Lungs ([10]; IP) [Log10 CFU] | Log10CFU Spleen ([10]; IP) | Δ Lungs (difference between means of Test and Control Groups) ([10]; PO) | Δ Spleen (difference between means of Test and Control Groups) ([10]; PO) | Log10CFU Lungs ([10]; PO) [Log10 CFU] | Log10CFU Spleen ([10]; PO) [Log10 CFU] | cytotoxicity in Vero cells [12] | MIC ([15]; H37Rv) [µg/mL] | also measured
1 | CCCCOC(=O)Nc1cc2nc(C3CCCCC3)[nH]c2cc1N(C)C [SB-P17G-C2] | Yes (.3464) | No | 90 | 96 | Sigmoid | .063 |  |  |  |  |  |  |  |  |  |  |  | MIC against clinical isolates [1]: 0.06 to 0.13 µg/mL; MIC [3]: 0.06 µg/mL (≈ 0.167 µM)
2 | CN(C)c1cc2[nH]c(C3CCCCC3)nc2cc1NC(=O)c1ccc(C(F)(F)F)cc1F [SB-P17G-A42] | Yes | Yes | 12 | 13 | Sigmoid | .156 | 2.5 Log10 CFU | −5.78*** Log10 CFU | −4.96*** Log10 CFU | 0.91 ± 0.64 | 0 ± 0 Log10 CFU | −5.65*** Log10 CFU | −3.89*** Log10 CFU | 0.66 ± 0.43 | 0 ± 0 | not cytotoxic; also recorded: non-toxic | 0.18 ± 0.1 (≈ 0.401 µM) | MIC ([7]; Mycobacterium tuberculosis): 0.16 µg/mL (≈ 0.357 µM); MIC [8]: 0.16 to 0.47 µg/mL (≈ 0.357 to 1.05 µM); reduction in number of viable bacteria ([9]; day 6): ~4 Log10 CFU; reduction of bacterial load in the lungs ([10]; 50 mg/kg b.i.d. via either IP or PO): 5.6-5.8 Log10 CFU; reduction of bacterial load in the lungs ([10]; delivered IP, 50 mg/kg b.i.d.): 5.8 Log10 CFU; reduction of bacterial load in the lungs ([10]; delivered PO, 50 mg/kg b.i.d.): 5.6 Log10 CFU; MIC ([11]; Mycobacterium tuberculosis): 0.31 µg/mL (≈ 0.691 µM); MIC ([13]; Mycobacterium tuberculosis): 0.16 µg/mL (≈ 0.357 µM); MIC ([14]; Mycobacterium tuberculosis): 0.24 ± 0.11 µg/mL (≈ 0.535 µM); MIC ([15]; Mycobacterium tuberculosis, H37RV): 0.18 ± 0.1 µg/mL (≈ 0.401 µM)
3 | CN(C)c1cc2[nH]c(C3CCCCC3)nc2cc1NC(=O)c1ccc(OC(F)(F)F)c(F)c1F [SB-P17G-A33] | Yes | Yes | 5 | 17 | Sigmoid | .5-.625 | 0.8-1.7 Log10 CFU | −2.10** Log10 CFU | −3.36*** Log10 CFU | 4.59 ± 0.71 | 1.60 ± .0 Log10 CFU | −1.72*** Log10 CFU | −2.49*** Log10 CFU | 4.58 ± 0.21 | 1.40 ± 1.24 | not cytotoxic; also recorded: non-toxic | 0.39 ± 0.16 (≈ 0.808 µM) | MIC [7]: 0.37 ± 0.24 µg/mL (≈ 0.767 µM); MIC [11]: 0.47 ± 0.22 µg/mL (≈ 0.974 µM); Vero Cells (cytotoxicity IC50) ([12]; 72 h): >200 µg/mL; MIC [13]: 0.39 ± 0.33 µg/mL (≈ 0.808 µM); MIC [14]: 0.31 ± 0 µg/mL (≈ 0.643 µM)
